Converted amounts (≈) assume the structure as drawn.
Assays:
[1] = tested on: Enterococcus sp.; assay: in vitro antibacterial evaluation, MIC by broth dilution; assay type: cell-based; conditions: broth dilution, 18 hours at 35° C.; for MIC Enterococcus faecalis (GC 2242): strain GC 2242; for MIC Enterococcus faecalis (GC 2691): strain GC 2691; for MIC Enterococcus faecalis (GC 3059): strain GC 3059; for MIC Enterococcus faecalis (GC 4552): strain GC 4552
How it was run: (§1)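 Following National Committee for Clinical Laboratory Standards recommendations (M7-A2), susceptibility was measured by dilution in Muller-Hinton II […]. Bacteria were seeded at 5×10^5 CFU/mL against compound concentrations from 64 down to 0.06 μg/mL.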

[2] = tested on: Escherichia coli; assay: as above; assay type: cell-based; conditions: 18 hours at 35° C.
How it was run: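 Test organisms, which included recent clinical isolates resistant to methicillin, penicillin and/or vancomycin, were inoculated at 5×10^5 CFU/mL into Muller-Hinton II […] containing antibiotic at 64-0.06 μg/mL. Minimum inhibitory concentrations were then read as the lowest level inhibiting growth.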

[3] = tested on: Staphylococcus sp.; assay: as above; assay type: cell-based; conditions: broth dilution, 18 hours at 35° C.
How it was run: as §1

[4] = tested on: Streptococcus sp.; assay: as above; assay type: cell-based; conditions: broth dilution, 18 hours at 35° C.; for MIC Streptococcus pneumoniae (ATCC 6301): strain ATCC 6301; for MIC Streptococcus pneumoniae (GC 1894): strain GC 1894; for MIC Streptococcus pyogenes (GC 4563): strain GC 4563; for MIC Streptococcus agalactiae (GC 4564): strain GC 4564; for MIC Streptococcus pneumoniae (GC 4565): strain GC 4565
How it was run: as §1

[5] = clinical pathology (serum clinical chemistry) in mice; assay type: in vivo; conditions: CD-1 mice, 20 mg/kg intravenously daily for 9 days, sera day 10
Description: 20-day-old CD-1 mice were divided into a vehicle control group (5 mice) and a treatment group (5 mice). Samples of glycopeptide antibiotics were administered at 20 mg/kg intravenously daily for 9 days.

[6] = anatomic pathology (histopathology of heart and kidney) in mice; assay type: in vivo; conditions: CD-1 mice, 20 mg/kg intravenously daily for 9 days, necropsy day 10, microscopic histopathology
Description: Samples of tissues from necropsied mice were formalin-fixed, paraffin-embedded, sectioned, stained with hematoxylin and eosin, and examined microscopically. Histopathologic findings were recorded. These findings were subjectively graded on a scale corresponding to slight, mild, moderate, marked and severe as compared to untreated controls.

[7] = Enterococcus faecalis (ATCC 29212)
[8] = Enterococcus faecalis (GC 4553)
[9] = Enterococcus faecalis (GC 4554)
[10] = Enterococcus faecalis (GC 6189)

CC(C)CC(=O)OC1C(OC2C(CO)OC(Oc3ccc(CC4NC(=O)C(C(C)c5ccccc5)NC(=O)CNC(=O)C(CO)NC(=O)C(CC5CNC(=N)N5C5OC(CO)C(O)C(O)C5O)NC(=O)C(CC5CNC(=N)N5)NC4=O)cc3)C(O)C2O)OC(CO)C(O)C1O (stereo not drawn) [Example 277b, Cyclo[3-(2-iminoimidazolidin-4-yl)alanyl-3-(3-hexogyranosyl-2-iminoimidazolidin-4-yl)-alanylserylglycyl-β-methylphenylalanyl-O-[4-O-[2-O-(3-methylbutanoyl)hexopyranosyl]-hexopyranosyl]tyrosyl]]
MIC Enterococcus avium (GC 4558) ([1]; Enterococcus avium (GC 4558)): >64 µg/mL | MIC Enterococcus faecalis (ATCC 29212) [1, 7]: >64 µg/mL | MIC Enterococcus faecalis (GC 4553) [1, 8]: >64 µg/mL | MIC Enterococcus faecalis (GC 4554) [1, 9]: >64 µg/mL | MIC Enterococcus faecalis (GC 6189) [1, 10]: >64 µg/mL | MIC Enterococcus faecium (GC 2243) ([1]; Enterococcus faecium (GC 2243)): >64 µg/mL | MIC Enterococcus faecium (GC 4556) ([1]; Enterococcus faecium (GC 4556)): >64 µg/mL | MIC Enterococcus faecium (GC 4557) ([1]; Enterococcus faecium (GC 4557)): >64 µg/mL | MIC Enterococcus faecalis (ATCC 29212) ([1]; strain ATCC 29212): >64 µg/mL | MIC Enterococcus faecalis (GC 2242) [1]: >64 µg/mL | MIC Enterococcus faecium (GC 2243) ([1]; strain GC 2243): >64 µg/mL | MIC Enterococcus faecalis (GC 2691) [1]: >64 µg/mL | MIC Enterococcus faecalis (GC 3059) [1]: >64 µg/mL | MIC Enterococcus faecalis (GC 4552) [1]: >64 µg/mL | MIC Enterococcus faecalis (GC 4553) ([1]; strain GC 4553): >64 µg/mL | MIC Enterococcus faecalis (GC 4554) ([1]; strain GC 4554): >64 µg/mL | MIC Enterococcus faecium (GC 4556) ([1]; strain GC 4556): >64 µg/mL | MIC Enterococcus faecium (GC 4557) ([1]; strain GC 4557): >64 µg/mL | MIC Enterococcus avium (GC 4558) ([1]; strain GC 4558): >64 µg/mL | MIC Enterococcus faecalis (GC 6189) ([1]; strain GC 6189): >64 µg/mL | MIC Escherichia coli (ATCC 25922) [2]: >64 µg/mL | MIC Escherichia coli (GC 4559) [2]: >64 µg/mL | MIC Escherichia coli (GC 4560) [2]: 32 µg/mL (≈ 23.7 µM) | MIC Coagulase Negative Staphylococcus (GC 4547) [3]: >64 µg/mL | MIC Coagulase Negative Staphylococcus (GC 4548) [3]: >64 µg/mL | MIC Coagulase Negative Staphylococcus (GC 4549) [3]: >64 µg/mL | MIC Coagulase Negative Staphylococcus (GC 4551) [3]: >64 µg/mL | MIC Coagulase Negative Staphylococcus (GC 6257) [3]: >64 µg/mL | MIC Staphylococcus aureus (ATCC 29213) [3]: >64 µg/mL | MIC Staphylococcus aureus (GC 1131) [3]: >64 µg/mL | MIC Staphylococcus aureus (GC 3051) [3]: >64 µg/mL | MIC Staphylococcus aureus (GC 3053) [3]: >64 µg/mL | MIC Staphylococcus aureus (GC 4541) [3]: >64 µg/mL | MIC Staphylococcus aureus (GC 4542) [3]: >64 µg/mL | MIC Staphylococcus aureus (GC 4544) [3]: >64 µg/mL | MIC Staphylococcus aureus (GC 4545) [3]: >64 µg/mL | MIC Staphylococcus aureus-SMITH (GC 4543) [3]: >64 µg/mL | MIC Staphylococcus haemolyticus (GC 4546) [3]: >64 µg/mL | MIC Staphylococcus aureus (ATCC 29213) ([3]; strain ATCC 29213): >64 µg/mL | MIC Staphylococcus aureus (GC 1131) ([3]; strain GC 1131): >64 µg/mL | MIC Staphylococcus aureus (GC 3051) ([3]; strain GC 3051): >64 µg/mL | MIC Staphylococcus aureus (GC 3053) ([3]; strain GC 3053): >64 µg/mL | MIC Staphylococcus aureus (GC 4541) ([3]; strain GC 4541): >64 µg/mL | MIC Staphylococcus aureus (GC 4542) ([3]; strain GC 4542): >64 µg/mL | MIC Staphylococcus aureus (GC 4544) ([3]; strain GC 4544): >64 µg/mL | MIC Staphylococcus aureus (GC 4545) ([3]; strain GC 4545): >64 µg/mL | MIC Staphylococcus haemolyticus (GC 4546) ([3]; strain GC 4546): >64 µg/mL | MIC Coagulase Negative Staphylococcus (GC 4547) ([3]; strain GC 4547): >64 µg/mL | MIC Coagulase Negative Staphylococcus (GC 4548) ([3]; strain GC 4548): >64 µg/mL | MIC Coagulase Negative Staphylococcus (GC 4549) ([3]; strain GC 4549): >64 µg/mL | MIC Coagulase Negative Staphylococcus (GC 4551) ([3]; strain GC 4551): >64 µg/mL | MIC Coagulase Negative Staphylococcus (GC 6257) ([3]; strain GC 6257): >64 µg/mL | MIC Staphylococcus aureus-SMITH (GC 4543) ([3]; strain SMITH GC 4543): >64 µg/mL | MIC Streptococcus pneumoniae (ATCC 6301) [4]: 64 µg/mL (≈ 47.5 µM) | MIC Streptococcus pneumoniae (GC 1894) [4]: >64 µg/mL | MIC Streptococcus pyogenes (GC 4563) [4]: >64 µg/mL | MIC Streptococcus agalactiae (GC 4564) [4]: >64 µg/mL | MIC Streptococcus pneumoniae (GC 4565) [4]: >64 µg/mL | Clinical Chemistry (Day 10) % of Control, ALT [5]: +164% | Clinical Chemistry (Day 10) % of Control, AST [5]: +138% | Clinical Chemistry (Day 10) % of Control, BUN [5]: +113% | Anatomical Pathology (Day 10), Heart [6]: 0 | Anatomical Pathology (Day 10), Kidney [6]: +

CC(c1ccccc1)C1NC(=O)CNC(=O)C(CO)NC(=O)C(CC2CNC(=N)N2C2OC(CO)C(O)C(O)C2O)NC(=O)C(CC2CNC(=N)N2)NC(=O)C(Cc2ccc(OC3OC(CO)C(OC4OC(CO)C(O)C(O)C4O)C(O)C3O)cc2)NC1=O (centres unmarked) [Example 277a]
MIC Enterococcus avium (GC 4558) ([1]; Enterococcus avium (GC 4558)): 128 µg/mL (≈ 101 µM) | MIC Enterococcus faecalis (ATCC 29212) [1, 7]: >128 µg/mL | MIC Enterococcus faecalis (GC 4553) [1, 8]: >128 µg/mL | MIC Enterococcus faecalis (GC 4554) [1, 9]: >128 µg/mL | MIC Enterococcus faecalis (GC 6189) [1, 10]: >128 µg/mL | MIC Enterococcus faecium (GC 2243) ([1]; Enterococcus faecium (GC 2243)): >128 µg/mL | MIC Enterococcus faecium (GC 4556) ([1]; Enterococcus faecium (GC 4556)): >128 µg/mL | MIC Enterococcus faecium (GC 4557) ([1]; Enterococcus faecium (GC 4557)): 128 µg/mL (≈ 101 µM) | MIC Enterococcus faecalis (ATCC 29212) ([1]; strain ATCC 29212): >128 µg/mL | MIC Enterococcus faecalis (GC 2242) [1]: >128 µg/mL | MIC Enterococcus faecium (GC 2243) ([1]; strain GC 2243): >128 µg/mL | MIC Enterococcus faecalis (GC 2691) [1]: >128 µg/mL | MIC Enterococcus faecalis (GC 3059) [1]: >128 µg/mL | MIC Enterococcus faecalis (GC 4552) [1]: >128 µg/mL | MIC Enterococcus faecalis (GC 4553) ([1]; strain GC 4553): >128 µg/mL | MIC Enterococcus faecalis (GC 4554) ([1]; strain GC 4554): >128 µg/mL | MIC Enterococcus faecium (GC 4556) ([1]; strain GC 4556): >128 µg/mL | MIC Enterococcus faecium (GC 4557) ([1]; strain GC 4557): 128 µg/mL (≈ 101 µM) | MIC Enterococcus avium (GC 4558) ([1]; strain GC 4558): 128 µg/mL (≈ 101 µM) | MIC Enterococcus faecalis (GC 6189) ([1]; strain GC 6189): >128 µg/mL | MIC Escherichia coli (ATCC 25922) [2]: >128 µg/mL | MIC Escherichia coli (GC 4559) [2]: >128 µg/mL | MIC Escherichia coli (GC 4560) [2]: >128 µg/mL | MIC Coagulase Negative Staphylococcus (GC 4547) [3]: >128 µg/mL | MIC Coagulase Negative Staphylococcus (GC 4548) [3]: >128 µg/mL | MIC Coagulase Negative Staphylococcus (GC 4549) [3]: >128 µg/mL | MIC Coagulase Negative Staphylococcus (GC 4551) [3]: >128 µg/mL | MIC Staphylococcus aureus (ATCC 29213) [3]: >128 µg/mL | MIC Staphylococcus aureus (GC 1131) [3]: >128 µg/mL | MIC Staphylococcus aureus (GC 3051) [3]: >128 µg/mL | MIC Staphylococcus aureus (GC 3053) [3]: >128 µg/mL | MIC Staphylococcus aureus (GC 4541) [3]: >128 µg/mL | MIC Staphylococcus aureus (GC 4542) [3]: >128 µg/mL | MIC Staphylococcus aureus (GC 4544) [3]: >128 µg/mL | MIC Staphylococcus aureus (GC 4545) [3]: >128 µg/mL | MIC Staphylococcus aureus-SMITH (GC 4543) [3]: >128 µg/mL | MIC Staphylococcus haemolyticus (GC 4546) [3]: >128 µg/mL | MIC Staphylococcus aureus (ATCC 29213) ([3]; strain ATCC 29213): >128 µg/mL | MIC Staphylococcus aureus (GC 1131) ([3]; strain GC 1131): >128 µg/mL | MIC Staphylococcus aureus (GC 3051) ([3]; strain GC 3051): >128 µg/mL | MIC Staphylococcus aureus (GC 3053) ([3]; strain GC 3053): >128 µg/mL | MIC Staphylococcus aureus (GC 4541) ([3]; strain GC 4541): >128 µg/mL | MIC Staphylococcus aureus (GC 4542) ([3]; strain GC 4542): >128 µg/mL | MIC Staphylococcus aureus (GC 4544) ([3]; strain GC 4544): >128 µg/mL | MIC Staphylococcus aureus (GC 4545) ([3]; strain GC 4545): >128 µg/mL | MIC Staphylococcus haemolyticus (GC 4546) ([3]; strain GC 4546): >128 µg/mL | MIC Coagulase Negative Staphylococcus (GC 4547) ([3]; strain GC 4547): >128 µg/mL | MIC Coagulase Negative Staphylococcus (GC 4548) ([3]; strain GC 4548): >128 µg/mL | MIC Coagulase Negative Staphylococcus (GC 4549) ([3]; strain GC 4549): >128 µg/mL | MIC Coagulase Negative Staphylococcus (GC 4551) ([3]; strain GC 4551): >128 µg/mL | MIC Staphylococcus aureus-SMITH (GC 4543) ([3]; strain SMITH GC 4543): >128 µg/mL | MIC Streptococcus pneumoniae (ATCC 6301) [4]: >128 µg/mL | MIC Streptococcus pneumoniae (GC 1894) [4]: >128 µg/mL | MIC Streptococcus pyogenes (GC 4563) [4]: >128 µg/mL | MIC Streptococcus agalactiae (GC 4564) [4]: >128 µg/mL | MIC Streptococcus pneumoniae (GC 4565) [4]: >128 µg/mL | Clinical Chemistry (Day 10) % of Control, BUN [5]: +110% | Anatomical Pathology (Day 10), Heart [6]: 0 | Anatomical Pathology (Day 10), Kidney [6]: ++

From patent US6914045B2, “Glycopeptide antibiotics” (Wyeth Holdings Corporation, priority 2001, dated 2005)
